The source of these data is PubChem BioAssay (NCI).

What all share (experiment): DTP human tumour cell line panel, 48 h
Experiment [1] has as its system OVCAR-3 ovarian.
Experiment [2] deals with PC-3 prostate.
Experiment [3] deals with SK-MEL-2 melanoma.
Experiment [4] has as its system OVCAR-8 ovarian.
Experiment [5] relates to SN12C renal.
Experiment [6] deals with NCI-H23 lung.
The test system of experiment [7] is COLO 205 colon.
Experiment [8] concerns M14 melanoma.
Experiment [9] concerns NCI-H522 lung.
Experiment [10] relates to MDA-MB-435.

In general, TGI refers to the concentration giving total growth inhibition. A low value points to greater sensitivity of the cells. In general, GI50 refers to the concentration giving 50% growth inhibition.

Several values for one entry are separate records, joined by “and”; a condition that tells them apart may be missing. Identical values can stand only once.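 A five-concentration, 48-hour dose response in 96-well plates underlies each endpoint, interpolated linearly between surrounding concentrations. GI50 = concentration required for 50% inhibition of growth. At the TGI there is no net growth.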

Take `N=Nc1c(OC(=O)Nc2cccc(Cl)c2)[nH]c2ccccc12`: the TGI in experiment [1] was 6.6 µM; in experiment [2], 14.6 µM; in experiment [3] it was 24.4 µM; in experiment [4], 20 µM; in experiment [5], 14.8 µM; in experiment [6], 12.1 µM. Moreover, the TGI is 19.4 µM in [7], 18.6 µM in experiment [8], 11.3 µM in [9] and 21.3 µM in [10].

Turning to `COc1c(Cl)c(=O)oc2ccc(Cl)cc12`, the TGI in [1], in experiment [2], in experiment [3], in experiment [4], in experiment [5] and in experiment [6] was more than 100 µM in each case. In addition, the TGI in [7], in [8], in [9] and in experiment [10] was more than 100 µM in each case.

`COc1ncnc(NS(=O)(=O)c2ccc(N=C3C(=O)N(CN4CCN(c5c(F)cc6c(=O)c(C(=O)O)cn(C7CC7)c6c5OC)CC4C)c4ccc(Cl)cc43)cc2)c1OC` (configuration not stated): the GI50 was 13.1 µM in experiment [1]; 9.39 µM in experiment [2]; 35.2 µM in experiment [3]; 14 µM in experiment [4]; 16.9 µM in experiment [5]; 13.5 µM in [6]. Further, the GI50 was 19.6 µM in [7], 21.1 µM in experiment [8], more than 50 µM in [9] and 9.34 µM in experiment [10]. In addition, the TGI is more than 50 µM in [1]; more than 50 µM in experiment [2]; more than 50 µM in [3]; more than 50 µM in experiment [4]; more than 50 µM in [5]; 47.3 µM in experiment [6]. Further, the TGI was more than 50 µM in experiment [7], more than 50 µM in experiment [8], more than 50 µM in experiment [9] and 19 µM in [10].

For the compound `CN1CCN(CCCn2c(=O)c3sc4ncccc4c3n3nnc(-c4ccccc4)c23)CC1`, the GI50 is 2.3 µM in [1]; 6.27 µM in experiment [2]; 8.8 µM in [3]; 7.83 µM in experiment [4]; 7.2 µM in [5]; 8.07 µM in experiment [6]. Moreover, the GI50 in experiment [7] was 7.35 µM; in experiment [8], 2.13 µM; in experiment [9] it was 7.23 µM; in experiment [10] it was 1.18 µM. Besides, the TGI in experiment [1] stood at 7.58 µM; in experiment [2], 13.4 µM; in [3], 16.7 µM; in [4], 15.3 µM; in experiment [5], 14.2 µM; in experiment [6], 15.3 µM. In addition, the TGI in experiment [7] amounted to 14.6 µM; in [8] it was 7.38 µM; in experiment [9], 14.4 µM; in [10] it was 3.01 µM.

For the compound `Nc1ncnc2n[nH]c(Nc3ccc(F)cc3)c12`, the GI50 is 30.8 µM in experiment [1]; 20.8 µM in experiment [2]; 14 µM in experiment [3]; 22.5 µM in [4]; 35.6 µM in experiment [5]; 67.8 µM in experiment [6]. The GI50 in experiment [7] was 17.3 µM; in [8], 13.4 µM; in [9], 29.8 µM; in [10], 19.7 µM. Besides, the TGI in [1], in experiment [2], in [3], in experiment [4], in [5] and in [6] was more than 100 µM in each case. Besides, the TGI was 66.1 µM in [7], more than 100 µM in experiment [8], more than 100 µM in experiment [9] and 49.6 µM in experiment [10].

With `O=C(Nc1ccc(Cl)cc1)c1cccc(NC2=C(Cl)C(=O)N(Cc3ccccc3)C2=O)c1`, the GI50 in [1] was 8.04 µM; in experiment [2], 9.12 µM; in experiment [3], 14.9 µM; in [4], 10 µM; in experiment [5] it was 7.79 µM; in experiment [6], 4.81 µM. For the same compound, the GI50 was 21.7 µM in experiment [7], 14.5 µM in experiment [8], 7.09 µM in experiment [9] and 23.9 µM in experiment [10]. Also, the TGI in experiment [1] turned out to be 47 µM; in [2] it was 21.2 µM; in experiment [3], 41.5 µM; in experiment [4] it was 21.6 µM; in [5] it was 24.2 µM; in experiment [6], 41.2 µM. Besides, the concentration for total growth inhibition (TGI) in experiment [7] is more than 100 µM; in experiment [8], 72.8 µM; in experiment [9], 29 µM; in [10], more than 100 µM.

As to `NC1(C(=O)OCc2ccccc2)CCCC1`, the TGI in experiment [1] was 28.7 µM; in [2], more than 100 µM; in experiment [3] it was 40.2 µM; in [4], 37.4 µM; in [5] it was 54 µM; in [6], 43.6 µM. Moreover, the TGI stood at 76.7 µM in [7], 35.2 µM in experiment [8], 42.6 µM in experiment [9] and 41.2 µM in [10].

In the case of `Cc1ccc(S(=O)(=O)Nc2ccccc2C(=O)c2ccc(C)c(C)c2)cc1`, the TGI in experiment [1], in experiment [2], in experiment [3], in experiment [4], in [5] and in experiment [6] was more than 100 µM in each case. Further, the total growth inhibition concentration (TGI) in experiment [7], in experiment [8], in experiment [9] and in experiment [10] was more than 100 µM throughout.

In the case of `CCCCCCCC(=O)SCC/C=C/[C@@H]1CC(=O)NCc2cc(ccn2)C2=N[C@@](C)(CS2)C(=O)N[C@@H](C(C)C)C(=O)O1`, the GI50 in experiment [1] is 0.0362 µM; in experiment [2], 0.0124 µM; in experiment [3], 0.015 µM; in [4], 0.0109 µM; in experiment [5], 0.0641 µM; in experiment [6], 0.0394 µM. For the same compound, the GI50 in experiment [7] is 0.0513 µM; in experiment [8], 0.0111 µM; in [9], 0.00721 µM; in experiment [10] it was 0.0115 µM. Also, the TGI is 0.362 µM in [1]; more than 33.3 µM in [2]; 0.595 µM in experiment [3]; more than 33.3 µM in experiment [4]; more than 33.3 µM in [5]; more than 33.3 µM in experiment [6]. In addition, the results for the concentration for total growth inhibition (TGI) in [7], in [8] and in experiment [9] were 0.147 µM, more than 13.3 µM and 0.204 µM, respectively.

As for `O=C(CCc1nnc2sc(-c3ccc(Cl)cc3Cl)nn12)c1nc2ncccc2[nH]1`, the GI50 in experiment [1] was 1.52 µM; in [2], 1.63 µM; in experiment [3], 2.59 µM; in experiment [4], 3.44 µM; in [5], 1.99 µM; in experiment [6] it was 1.76 µM. Besides, the GI50 is 1.93 µM in experiment [7], 3.35 µM in experiment [8], 1.9 µM in experiment [9] and 1.75 µM in experiment [10]. Besides, the TGI was 3.1 µM in [1]; 3.63 µM in [2]; 7.27 µM in experiment [3]; more than 100 µM in [4]; 4.92 µM in experiment [5]; 4.41 µM in experiment [6]. Besides, the TGI in experiment [7] came out at 4.2 µM; in experiment [8] it was 16.5 µM; in experiment [9], 4.49 µM; in experiment [10] it was 3.68 µM.

Consider `O=c1c2sccc2n(CC2COc3ccccc3O2)c(=O)n1O` (configuration not stated), for which the GI50 was 10.4 µM in experiment [1]; 18.2 µM in experiment [2]; 23.5 µM in experiment [3]; 30.5 µM in experiment [4]; 11.1 µM in experiment [5]; 6.88 µM in experiment [6]. In addition, the GI50 was 36.8 µM in [7], 21.2 µM in experiment [8], 6.2 µM in experiment [9] and 23.9 µM in experiment [10]. Also, the TGI in [1] is 44.9 µM; in experiment [2], more than 100 µM; in [3] it was 80.7 µM; in experiment [4], more than 100 µM; in [5], more than 100 µM; in experiment [6] it was 34.4 µM. Further, the TGI in experiment [7], in experiment [8], in experiment [9] and in [10] was more than 100 µM in each case.

Turning to `CC[C@H](Nc1ncnc2nc[nH]c12)c1oc2ccccc2c(=O)c1-c1cccc(F)c1`, the GI50 in experiment [1] was 18.3 µM; in [2], 12.4 µM; in experiment [3], 18.4 µM; in experiment [4], 31.9 µM; in [5] it was 19.7 µM; in [6], 29.7 µM. For the same compound, the GI50 in experiment [7] is 37.4 µM; in [8] it was 28.1 µM; in experiment [9], 19.7 µM; in experiment [10], 18.7 µM. Besides, the TGI is more than 100 µM in experiment [1]; more than 100 µM in experiment [2]; 46.7 µM in experiment [3]; more than 100 µM in experiment [4]; more than 100 µM in experiment [5]; more than 100 µM in [6]. For the same compound, the TGI was more than 100 µM in experiment [7], more than 100 µM in experiment [8], more than 100 µM in experiment [9] and 70.7 µM in [10].

With `CN(C)CCSC1=Nc2ccc(Cl)cc2C(c2ccccc2Cl)=NC1`, the GI50 in experiment [1] was 17.3 µM and > 100 µM; in experiment [2], 15.4 µM and 57.7 µM; in [4], 6.63 µM and 43.5 µM; in experiment [5], 13.5 µM and > 100 µM; in experiment [6], 15 µM and 97.1 µM; in experiment [7] it was 14 µM and 74.2 µM. The GI50 is 15.8 µM and > 100 µM in experiment [8]; 6.68 µM and 52.2 µM in experiment [9]. The TGI in experiment [1] is 31.8 µM and > 100 µM; in experiment [2], 33.4 µM and > 100 µM; in experiment [3] it was more than 100 µM; in experiment [4], 20.2 µM and > 100 µM; in [5], 26.5 µM and > 100 µM; in experiment [6], 30.2 µM and > 100 µM. Further, the TGI was 27.3 µM and > 100 µM in experiment [7]; 36.4 µM and > 100 µM in [8]; 21.6 µM and > 100 µM in experiment [9]; 28.4 µM and 38.7 µM in experiment [10].
